Test results as given in patent US6416979B1, “5-substituted picolinic acid compounds production by Marasmiellus sp” (Pfizer Inc., priority 1997, dated 2002).

Assays:
TNF production = assay: TNF Bioassay (LPS-stimulated human whole blood, TNF titer with L929 cells); assay type: cell-based; conditions: heparinised human whole blood diluted four-fold, 10 μg/ml LPS, 37° C., 4 h; standard in vitro protocol
Experimental: (§1) Heparinised human whole blood diluted four-fold with RPMI medium was incubated with 10 μg/ml of Lipopolysaccharide (LPS) in the presence of various concentrations of samples at 37° C. in a humidified atmosphere containing 5% CO2 for 4 h. The TNF titer in the supernatants was determined with L929 cells which were destroyed by TNF quantitatively. L929 cells (2.5×10^4 cells) in 90 μl of E-MEM medium containing 1% fetal calf serum and 0.5 μg/ml of actinomycin D were placed in wells of 96-well microplates (flat-bottom). Ten μl of the supernatants was added to each well and incubated at 37° C. in a humidified atmosphere containing 5% CO2. After 18 h, the plates were rinsed with 0.9% sterile saline and stained for 10 min with 0.4% crystal violet in MeOH. The plates were washed with distilled water and were dried by air. Fifty μl of methanol was added to each well to elute the crystal violet, and the plates were read on a microplate reader (model 3550, BIO-RAD) at 595 nm. TNF production inhibitory activity is calculated by the formula: [formula]

IL-1 production = assay: IL-1 Bioassay (supernatants of LPS-stimulated human whole blood, specific ELISA); assay type: cell-based; conditions: heparinised human whole blood diluted four-fold, 10 μg/ml LPS, 37° C., 4 h, standard in vitro protocol
Experimental: as §1
The supernatants prepared by the same method as TNF bioassay were analyzed IL-1 titer by commercially available specific ELISA system. The plates were read on a microplate reader (model 3550, BIO-RAD) at 490 nm. IL-1 production inhibitory activity is calculated by the formula: [formula]

SMILES | TNF biosynthesis inhibitory activities (TNF production) | IL-1 biosynthesis inhibitory activities (IL-1 production)
CC(O)C(O)c1ccc(C#N)nc1 (centres unmarked) [5-(1,2-dihydroxypropyl)-2-pyridinecarbonitrile] | found to have the IL-1 and TNF biosynthesis inhibitory activities | found to have the IL-1 and TNF biosynthesis inhibitory activities
COC(=O)c1ccc(C(OC(=O)c2ccc(Br)cc2)C(C)OC(=O)c2ccc(Br)cc2)cn1 (centres unmarked) [methyl 5-(1,2-di-p-bromobenzoyloxypropyl)-2-pyridinecarboxylate] | found to have the IL-1 and TNF biosynthesis inhibitory activities | found to have the IL-1 and TNF biosynthesis inhibitory activities
COC(=O)c1ccc(C(O)C(C)O)cn1 (centres unmarked) [methyl 5-(1,2-dihydroxypropyl)-2-pyridinecarboxylate] | found to have the IL-1 and TNF biosynthesis inhibitory activities | found to have the IL-1 and TNF biosynthesis inhibitory activities
COC(=O)c1ccc(C(OC(C)=O)C(C)OC(C)=O)cn1 (centres unmarked) [methyl 5-(1,2-diacetoxypropyl)-2-pyridinecarboxylate] | found to have the IL-1 and TNF biosynthesis inhibitory activities | found to have the IL-1 and TNF biosynthesis inhibitory activities
CC(O)C(O)c1ccc(C(N)=O)nc1 (centres unmarked) [5-(1,2-dihydroxypropyl)-2-pyridinecarboxamide] | found to have the IL-1 and TNF biosynthesis inhibitory activities | found to have the IL-1 and TNF biosynthesis inhibitory activities
CC(O)C(O)c1ccc(-c2nnnn2C)nc1 (centres unmarked) [5-(1,2-di-hydroxypropyl)-2-(1-methyl-1H-1,2,3,4-tetrazol-5-yl)pyridine] | found to have the IL-1 and TNF biosynthesis inhibitory activities | found to have the IL-1 and TNF biosynthesis inhibitory activities
COC(=O)c1ccc(C(OC(C)=O)C(C)O)cn1 (centres unmarked) [methyl 5-(1-acetoxy-2-hydroxypropyl)-2-pyridinecarboxylate] | found to have the IL-1 and TNF biosynthesis inhibitory activities | found to have the IL-1 and TNF biosynthesis inhibitory activities
CC(O)C(O)c1ccc(C(=O)N(C)C)nc1 (centres unmarked) [5-(1,2-dihydroxypropyl)-N,N-di-methyl-2-pyridinecarboxamide] | found to have the IL-1 and TNF biosynthesis inhibitory activities | found to have the IL-1 and TNF biosynthesis inhibitory activities
CC(O)C(O)c1ccc(C(=O)O)nc1 (centres unmarked) [5-(1,2-dihydroxypropyl)-2-pyridinecarboxylic acid] | found to have the IL-1 and TNF biosynthesis inhibitory activities | found to have the IL-1 and TNF biosynthesis inhibitory activities
CC(O)C(O)c1ccc(-c2nnn(C)n2)nc1 (centres unmarked) [5-(1,2-di-hydroxypropyl)-2-(2-methyl-2H-1,2,3,4-tetrazol-5-yl)pyridine] | found to have the IL-1 and TNF biosynthesis inhibitory activities | found to have the IL-1 and TNF biosynthesis inhibitory activities
